{"source": "patent US12213959B2", "about": "“Use of 3-O-sulfamoyloxy-7β-methyl-d-homo-6-oxaestra-1,3,5(10),8(9)-tetraen-17a-one to treat breast cancer” (priority 2018, dated 2025)", "key": {"[1]": {"tested_on": "inoculated human tumour of triple-negative breast cancer", "assay": "Animal models with inoculated human triple-negative breast cancer tumour", "conditions": "in vivo"}, "[2]": {"assay": "Body weight and tolerability during the antitumour study", "description": "The study medicament was administered i.g. using a metal atraumatic gavage (with the procedure corresponds to the oral route of administration in clinical settings). […] Ex tempore solutions of the medicament for administration were prepared in olive oil (refined olive oil supplemented with unrefined extra virgin olive oil available under Global Village “Clasico” trademark, lot L:183351116, expiry date 26.04.2020, BAIEO, Spain). The administered volume was 0.1 ml per 10 g of a mouse body weight (0.2 ml of a ready-to-use formulation for a mouse of 20 g). The medicament administration was started 24 hours after the randomization. Duration of the administration course was 27-28 days.\nThis dose corresponds to a human daily dose of 20 mg/kg.\nThe evaluation criteria included the clinical observation data, animals body weights, time of death (if applicable), tumor growth over time, pathomorphological examination data (verification of a neoplasm during autopsy, assessment of toxic effects by macroscopic presentation of changes in the internal organs).\nThe animals body weights were recorded before the first administration of the medicaments and then twice per week using a verified high-speed electronic laboratory balance Ohaus Scout Pro (USA) with a maximum load of 2000 g and a measurement pitch of 0.1 g."}, "[3]": {"assay": "Acute oral toxicity, OECD 423 test", "assay_type": "in vivo", "conditions": "for Body weight of individual mice: in g (unit assumed)", "description": "12 female mice were used in the experiment.\nThe dosage form for the administration was prepared ex tempore.\nNo deaths were detected either.\nFurther the observations were made once per day.\nThe medicament was administered in 2 steps with a break of 3 hours in a volume of 0.1 ml per 10 g of a body weight per step at the concentration of […], because the suspension in oil is thicker at higher concentrations and precludes the medicament to be administered through a gavage. […] Regardless of the group the width of the palpebral fissure of the animals was almost unchanged during the entire observation period. No pathological discharges from the eyes were detected. The nose was pink, moderately moist without pathological discharges. The fur of all mice was neat and shiny without bald spots. A 1% decrease of the animals body weight was registered on Day 2 and a 6% weight decrease on Day 7 from the initial weight (Table 3)."}, "[4]": {"conditions": "300 mg/kg, Day 1 (before administration)"}, "[5]": {"conditions": "2000 mg/kg, Day 1 (before administration)"}}, "note": "Several values for one entry are separate records, joined by “and”; a condition that tells them apart may be missing. Equal entries are not always repeated."}
{"smiles": "C[C@H]1Oc2cc(OS(N)(=O)=O)ccc2C2=C1[C@@H]1CCCC(=O)[C@@]1(C)CC2", "note": "[medicament, 3-O-sulfamoyloxy-7β-methyl-O-homo-6-oxaestra-1,3,5(10),8(9)-tetraen]", "values": [{"measurement": "action compared with Tamoxifen and Letrozole", "setting": "[1]", "value": "better action than that of the clinically used Tamoxifen and an aromatase inhibitor Letrozole"}, {"measurement": "signs of toxic damage to the internal organs at autopsy", "setting": "[2]; end of the experiment", "value": "no specific signs of toxic damage to the internal organs"}, {"measurement": "clinical signs of toxicity", "setting": "[2]; mouse, in vivo", "value": "no clinical signs of toxicity being observed"}, {"measurement": "visual signs of intoxication", "setting": "[3]; 300 mg/kg i.g., entire observation period", "value": "None of the animals exhibited visual signs of intoxication"}, {"measurement": "Average body weight", "setting": "[3]; [4]", "value": 27.4, "unit": "g"}, {"measurement": "Body weight of individual mice", "setting": "[3]; [4]", "value": "26.4 and 29.6 and 26.0 and 27.0 and 28.0 and 27.5"}, {"measurement": "Average body weight", "setting": "[3]; 300 mg/kg, Day 2", "value": 27.1, "unit": "g"}, {"measurement": "Average body weight, % from baseline", "setting": "[3]; 300 mg/kg, Day 2", "value": "−1", "unit": "%"}, {"measurement": "average body weight decrease", "setting": "[3]; 300 mg/kg, Day 2", "value": 1, "unit": "%"}, {"measurement": "Body weight of individual mice", "setting": "[3]; 300 mg/kg, Day 2", "value": "26.8 and 24.2 and 26.5 and 25.2 and 27.3 and 27.6"}, {"measurement": "Average body weight", "setting": "[3]; 300 mg/kg, Day 7", "value": 27.6, "unit": "g"}, {"measurement": "Average body weight, % from baseline", "setting": "[3]; 300 mg/kg, Day 7", "value": 1, "unit": "%"}, {"measurement": "Body weight of individual mice", "setting": "[3]; 300 mg/kg, Day 7", "value": "27.0 and 29.4 and 27.4 and 25.6 and 28.2 and 28.0"}, {"measurement": "Average body weight", "setting": "[3]; 300 mg/kg, Day 14", "value": 28.1, "unit": "g"}, {"measurement": "Average body weight, % from baseline", "setting": "[3]; 300 mg/kg, Day 14", "value": 2, "unit": "%"}, {"measurement": "Body weight of individual mice", "setting": "[3]; 300 mg/kg, Day 14", "value": "27.0 and 29.8 and 29.3 and 26.0 and 27.9 and 28.4"}, {"measurement": "clinical signs of intoxication", "setting": "[3]; 2000 mg/kg i.g.", "value": "No clinical signs of intoxication were observed"}, {"measurement": "Average body weight", "setting": "[3]; [5]", "value": 26.2, "unit": "g"}, {"measurement": "Body weight of individual mice", "setting": "[3]; [5]", "value": "28.4 and 25.0 and 26.6 and 24.0 and 26.7 and 26.4"}, {"measurement": "Average body weight", "setting": "[3]; 2000 mg/kg, Day 2", "value": 26.1, "unit": "g"}, {"measurement": "Average body weight, % from baseline", "setting": "[3]; 2000 mg/kg, Day 2", "value": "−1", "unit": "%"}, {"measurement": "decrease of body weight from the initial weight", "setting": "[3]; 2000 mg/kg, Day 2", "value": 1, "unit": "%"}, {"measurement": "Body weight of individual mice", "setting": "[3]; 2000 mg/kg, Day 2", "value": "27.9 and 25.5 and 26.5 and 25.2 and 27.3 and 27.0"}, {"measurement": "Average body weight", "setting": "[3]; 2000 mg/kg, Day 7", "value": 24.7, "unit": "g"}, {"measurement": "Average body weight, % from baseline", "setting": "[3]; 2000 mg/kg, Day 7", "value": "−6", "unit": "%"}, {"measurement": "decrease of body weight from the initial weight", "setting": "[3]; 2000 mg/kg, Day 7", "value": 6, "unit": "%"}, {"measurement": "Body weight of individual mice", "setting": "[3]; 2000 mg/kg, Day 7", "value": "24.7 and 24.5 and 25.1 and 25.6 and 28.2 and 25.7"}, {"measurement": "Average body weight", "setting": "[3]; 2000 mg/kg, Day 14", "value": 26.3, "unit": "g"}, {"measurement": "Body weight of individual mice", "setting": "[3]; 2000 mg/kg, Day 14", "value": "28.3 and 24.9 and 26.4 and 26.0 and 27.9 and 27.0"}, {"measurement": "macroscopic changes of internal organs at autopsy", "setting": "[3]; Day 15", "value": "no changes of the internal organs were detected"}, {"measurement": "hazard category", "setting": "[3]; OECD 423", "value": "5th or unclassified category and 5th or non-classified category"}, {"measurement": "hazard category", "setting": "[3]; OECD 423, listed as anti-cancer agent", "value": 5, "unit": "th hazard category"}, {"measurement": "LD50 at 14 days", "setting": "[3]; female, FVB transgenic for HER-2/neu, mouse, in vivo, po, oral (i.g.), mice, OECD 423", "value": "≥ 5000", "unit": "mg/kg"}, {"measurement": "LD50", "setting": "[3]; oral (i.g.), mice, OECD 423, listed as anti-cancer agent", "value": "> 5000", "unit": "mg/kg"}]}
